{
  "source": "ChEMBL document CHEMBL1681652",
  "about": "“Synthesis and evaluation of 2-phenyl-1,4-butanediamine-based CCR5 antagonists for the treatment of HIV-1” (Bioorg Med Chem Lett, 2011)",
  "key": {"[1]": {"tested_on": "Human immunodeficiency virus 1", "test": "Antiviral activity against HIV1 Ba-L infected in human HOS cells expressing CCR5 after 4 days", "type": "functional, organism-based"}, "[2]": {"biological_target": "Voltage-gated inwardly rectifying potassium channel KCNH2 (Homo sapiens, UniProt Q12809)", "sequence (Q12809 whole entry)": "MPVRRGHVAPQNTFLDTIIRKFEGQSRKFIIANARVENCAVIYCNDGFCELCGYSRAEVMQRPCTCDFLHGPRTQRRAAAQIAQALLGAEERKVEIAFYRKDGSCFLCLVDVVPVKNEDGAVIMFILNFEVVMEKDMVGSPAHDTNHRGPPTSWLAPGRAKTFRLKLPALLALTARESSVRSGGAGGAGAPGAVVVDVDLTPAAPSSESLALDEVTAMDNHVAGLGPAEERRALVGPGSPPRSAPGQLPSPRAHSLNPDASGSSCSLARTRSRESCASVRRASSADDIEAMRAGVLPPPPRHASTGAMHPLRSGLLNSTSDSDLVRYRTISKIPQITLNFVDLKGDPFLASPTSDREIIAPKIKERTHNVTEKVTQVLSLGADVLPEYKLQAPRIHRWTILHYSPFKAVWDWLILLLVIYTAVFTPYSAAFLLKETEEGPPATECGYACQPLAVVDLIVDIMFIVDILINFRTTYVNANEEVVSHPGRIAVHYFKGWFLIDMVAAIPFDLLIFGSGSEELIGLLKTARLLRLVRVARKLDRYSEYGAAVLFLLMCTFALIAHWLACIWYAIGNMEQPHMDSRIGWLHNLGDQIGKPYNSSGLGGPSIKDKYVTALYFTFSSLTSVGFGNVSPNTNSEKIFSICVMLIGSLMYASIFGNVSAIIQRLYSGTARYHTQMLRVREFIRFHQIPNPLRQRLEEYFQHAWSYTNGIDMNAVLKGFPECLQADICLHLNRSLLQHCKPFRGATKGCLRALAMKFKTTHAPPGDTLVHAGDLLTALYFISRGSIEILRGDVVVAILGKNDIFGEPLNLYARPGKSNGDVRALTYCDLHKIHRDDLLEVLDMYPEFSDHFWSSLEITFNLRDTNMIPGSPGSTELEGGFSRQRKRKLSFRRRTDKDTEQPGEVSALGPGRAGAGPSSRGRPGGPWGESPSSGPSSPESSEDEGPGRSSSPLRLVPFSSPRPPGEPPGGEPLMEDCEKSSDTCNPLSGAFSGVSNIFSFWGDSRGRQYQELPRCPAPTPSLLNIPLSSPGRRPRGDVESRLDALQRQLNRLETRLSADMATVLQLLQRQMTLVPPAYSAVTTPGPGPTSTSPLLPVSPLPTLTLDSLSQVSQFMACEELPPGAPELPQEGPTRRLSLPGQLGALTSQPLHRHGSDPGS", "test": "Displacement of labeled dofetilide from human ERG"}, "[3]": {"tested_on": "Human immunodeficiency virus 1", "test": "Antiviral activity against HIV1 Ba-L infected in human PBL cells assessed as reverse transcriptase activity after 7 days", "type": "functional, organism-based", "settings": "Human immunodeficiency virus 1, Ba-L, 168 h"}, "[4]": {"test": "Oral bioavailability in Sprague-Dawley rat at 1 mg/kg", "type": "ADME, organism-based", "settings": "in vivo"}, "[5]": {"test": "Half life in human hepatocytes", "type": "ADME, cell-based, Liver, Hepatocyte"}, "[6]": {"test": "Half life in rat hepatocytes", "type": "ADME, cell-based, Liver, Hepatocyte"}, "Rattus norvegicus": {"tested_on": "Rattus norvegicus", "test": "AUC in Sprague-Dawley rat at 1 mg/kg, iv and po", "type": "ADME, organism-based, Plasma", "parameters": "dose 1 mg/kg, route oral; unit not given here", "settings": "in vivo"}, "[7]": {"test": "Apparent permeability across MDCK cells", "type": "ADME, cell-based, Canis lupus familiaris", "settings": "dog"}, "[8]": {"settings": "Human immunodeficiency virus 1, Ba-L, HOS, 96 h"}},
  "data": [
    {"smiles": "Cc1nnc(C(C)C)n1[C@H]1C[C@H]2CC[C@@H](C1)N2CCC(CNC(=O)c1ccccc1)c1ccccc1", "note": "(mixture of isomers)", "values": [
      {"measurement": "IC50", "setting": "[1]; [8]", "value": "> 20000", "unit": "nM"},
      {"measurement": "IC50", "setting": "[2]", "value": "≥ 10000", "unit": "nM"}
    ]},
    {"smiles": "CCc1nc(Cc2ccccc2)cn1C1CCN(CCC(CNS(=O)(=O)c2ccccc2)c2ccccc2)CC1", "note": "(racemic)", "values": [
      {"measurement": "IC50", "setting": "[1]; [8]", "value": 45, "unit": "nM"},
      {"measurement": "IC50", "setting": "[3]", "value": 43, "unit": "nM"}
    ]},
    {"smiles": "Cc1nnc(C(C)C)n1[C@H]1C[C@H]2CC[C@@H](C1)N2CCC(CNC(=O)C1CC(F)(F)C1)c1ccccc1", "note": "(mixture of isomers)", "values": [
      {"measurement": "IC50", "setting": "[1]; [8]", "value": "> 20000", "unit": "nM"}
    ]},
    {"smiles": "Cn1nc(Cc2ccccc2)cc1C1CCN(CCC(CNS(=O)(=O)c2ccccc2)c2ccccc2)CC1", "note": "(racemic)", "values": [
      {"measurement": "IC50", "setting": "[1]; [8]", "value": 88, "unit": "nM"}
    ]},
    {"smiles": "Cc1nnc(C(C)C)n1[C@H]1C[C@H]2CC[C@@H](C1)N2CCC(CNC(=O)C1CCC(F)(F)CC1)c1ccccc1", "note": "(mixture of isomers) [listing 1 of 2 here]", "values": [
      {"measurement": "IC50", "setting": "[1]; hos", "value": 866, "unit": "nM"},
      {"measurement": "IC50", "setting": "[2]", "value": "≥ 10000", "unit": "nM"}
    ]},
    {"smiles": "CC(=O)N1CCc2nc(C)n([C@H]3C[C@H]4CC[C@@H](C3)N4CCC(CNS(=O)(=O)c3ccccc3)c3ccccc3)c2C1", "note": "(mixture of isomers)", "values": [
      {"measurement": "IC50", "setting": "[1]; [8]", "value": 3, "unit": "nM"},
      {"measurement": "bioavailability", "setting": "[4]", "value": "< 1", "unit": "%"},
      {"measurement": "half-life", "setting": "[5]", "value": "≤ 20", "unit": "min"},
      {"measurement": "half-life", "setting": "[6]", "value": "≤ 20", "unit": "min"},
      {"measurement": "AUC", "setting": "Rattus norvegicus", "value": 0},
      {"measurement": "IC50", "setting": "[3]", "value": 1, "unit": "nM"}
    ]},
    {"smiles": "Cc1nc2ccccc2n1C1CC2CCC(C1)N2CCC(CNC(=O)C1CCC(F)(F)CC1)c1ccccc1", "note": "(racemic)", "values": [
      {"measurement": "IC50", "setting": "[1]; [8]", "value": 411, "unit": "nM"}
    ]},
    {"smiles": "Cc1nnc(C(C)C)n1[C@@H]1C[C@H]2CC[C@@H](C1)N2CCC(C)(CNS(=O)(=O)c1ccccc1)c1ccccc1", "note": "(mixture of isomers)", "values": [
      {"measurement": "IC50", "setting": "[1]; [8]", "value": 578, "unit": "nM"}
    ]},
    {"smiles": "Cc1nnc(C(C)C)n1C1CCN(CCC(CNS(=O)(=O)c2ccccc2)c2ccccc2)CC1", "note": "(racemic)", "values": [
      {"measurement": "IC50", "setting": "[1]; [8]", "value": 989, "unit": "nM"}
    ]},
    {"smiles": "Cc1nc2ccccc2n1C1CC2CCC(C1)N2CCC(CNS(=O)(=O)c1ccccc1)c1ccccc1", "note": "(racemic)", "values": [
      {"measurement": "IC50", "setting": "[1]; [8]", "value": 65, "unit": "nM"},
      {"measurement": "IC50", "setting": "[3]", "value": 112, "unit": "nM"}
    ]},
    {"smiles": "Cc1nc2ccccc2n1C1CC2CCC(C1)N2CCC(CN(C)C(=O)C1CCC(F)(F)CC1)c1ccccc1", "note": "(racemic)", "values": [
      {"measurement": "IC50", "setting": "[1]; [8]", "value": 520, "unit": "nM"}
    ]},
    {"smiles": "Cc1nc2ccccc2n1[C@H]1C[C@H]2CC[C@@H](C1)N2CCC(C)(CNS(=O)(=O)c1ccccc1)c1ccccc1", "note": "(mixture of isomers)", "values": [
      {"measurement": "IC50", "setting": "[1]; [8]", "value": 124, "unit": "nM"}
    ]},
    {"smiles": "Cc1nc2ccccc2n1C1CC2CCC(C1)N2CCC(CNS(C)(=O)=O)c1ccccc1", "note": "(racemic)", "values": [
      {"measurement": "IC50", "setting": "[1]; [8]", "value": 23, "unit": "nM"},
      {"measurement": "IC50", "setting": "[3]", "value": 99, "unit": "nM"}
    ]},
    {"smiles": "CC(=O)NCC(CCN1C2CCC1CC(n1c(C)nc3ccccc31)C2)c1ccccc1", "note": "(racemic)", "values": [
      {"measurement": "IC50", "setting": "[1]; [8]", "value": 866, "unit": "nM"}
    ]},
    {"smiles": "Cc1nc2ccncc2n1[C@H]1C[C@H]2CC[C@@H](C1)N2CCC(CNS(=O)(=O)c1ccccc1)c1ccccc1", "note": "(mixture of isomers)", "values": [
      {"measurement": "IC50", "setting": "[1]; [8]", "value": 38, "unit": "nM"}
    ]},
    {"smiles": "Cc1nc2ccccc2n1[C@@H]1C[C@H]2CC[C@@H](C1)N2CCC(CNS(=O)(=O)c1ccccc1)c1ccccc1", "note": "(mixture of isomers)", "values": [
      {"measurement": "IC50", "setting": "[1]; [8]", "value": 117, "unit": "nM"}
    ]},
    {"smiles": "Cc1nc2ccccc2n1[C@H]1C[C@H]2CC[C@@H](C1)N2CCC(C)(CN(C)S(=O)(=O)c1ccccc1)c1ccccc1", "note": "(mixture of isomers)", "values": [
      {"measurement": "IC50", "setting": "[1]; [8]", "value": 9, "unit": "nM"},
      {"measurement": "bioavailability", "setting": "[4]", "value": "< 1", "unit": "%"},
      {"measurement": "Papp", "setting": "[7]", "value": 7, "unit": "×10⁻⁶ cm/s"},
      {"measurement": "half-life", "setting": "[5]", "value": "≤ 20", "unit": "min"},
      {"measurement": "half-life", "setting": "[6]", "value": "≤ 20", "unit": "min"},
      {"measurement": "AUC", "setting": "Rattus norvegicus", "value": 0},
      {"measurement": "IC50", "setting": "[3]", "value": 1, "unit": "nM"}
    ]},
    {"smiles": "Cc1nc2ccccc2n1[C@H]1C[C@H]2CC[C@@H](C1)N2CCC(C)(CN(C)C(=O)C1CCC(F)(F)CC1)c1ccccc1", "note": "(mixture of isomers)", "values": [
      {"measurement": "IC50", "setting": "[1]; [8]", "value": 235, "unit": "nM"}
    ]},
    {"smiles": "Cc1nc2ccccc2n1[C@H]1C[C@H]2CC[C@@H](C1)N2CCC(C)(CNC(=O)C1CCC(F)(F)CC1)c1ccccc1", "note": "(mixture of isomers)", "values": [
      {"measurement": "IC50", "setting": "[1]; [8]", "value": 249, "unit": "nM"}
    ]},
    {"smiles": "Cc1nnc(C(C)C)n1[C@H]1C[C@H]2CC[C@@H](C1)N2CCC(CNS(=O)(=O)c1ccccc1)c1ccccc1", "note": "(racemic; 14a)", "values": [
      {"measurement": "IC50", "setting": "[1]; hos", "value": 480, "unit": "nM"},
      {"measurement": "IC50", "setting": "[2]", "value": "≥ 10000", "unit": "nM"}
    ]},
    {"smiles": "Cc1nnc(C(C)C)n1[C@@H]1C[C@H]2CC[C@@H](C1)N2CCC(C)(CNC(=O)C1CCC(F)(F)CC1)c1ccccc1", "note": "(mixture of isomers)", "values": [
      {"measurement": "IC50", "setting": "[1]; [8]", "value": 583, "unit": "nM"}
    ]},
    {"smiles": "Cc1nc2ccccc2n1C1CC2CCC(C1)N2CCC(CNS(=O)(=O)c1cccc(C(N)=O)c1)c1ccccc1", "note": "(racemic)", "values": [
      {"measurement": "IC50", "setting": "[1]; [8]", "value": 16, "unit": "nM"},
      {"measurement": "IC50", "setting": "[3]", "value": 161, "unit": "nM"}
    ]},
    {"smiles": "COP(=O)(NCC(CCN1C2CCC1CC(n1c(C)nc3ccccc31)C2)c1ccccc1)OC", "note": "(racemic)", "values": [
      {"measurement": "IC50", "setting": "[1]; [8]", "value": 77, "unit": "nM"}
    ]},
    {"smiles": "Cc1nc2ccccc2n1C1CC2CCC(C1)N2CCC(CN(C)S(=O)(=O)c1ccccc1)c1ccccc1", "note": "(racemic)", "values": [
      {"measurement": "IC50", "setting": "[1]; [8]", "value": 8, "unit": "nM"},
      {"measurement": "bioavailability", "setting": "[4]", "value": 5, "unit": "%"},
      {"measurement": "half-life", "setting": "[5]", "value": "≤ 20", "unit": "min"},
      {"measurement": "half-life", "setting": "[6]", "value": "≤ 20", "unit": "min"},
      {"measurement": "AUC", "setting": "Rattus norvegicus", "value": 40},
      {"measurement": "IC50", "setting": "[3]", "value": 60, "unit": "nM"}
    ]},
    {"smiles": "Cc1nnc(-c2ccccc2)n1C1CCN(CCC(CNS(=O)(=O)c2ccccc2)c2ccccc2)CC1", "note": "(racemic)", "values": [
      {"measurement": "IC50", "setting": "[1]; [8]", "value": 5020, "unit": "nM"}
    ]},
    {"smiles": "Cc1nc2ccccc2n1C1CCN(CCC(CNS(=O)(=O)c2ccccc2)c2ccccc2)CC1", "note": "(racemic)", "values": [
      {"measurement": "IC50", "setting": "[1]; [8]", "value": 362, "unit": "nM"}
    ]},
    {"smiles": "Cc1nc2ccccc2n1C1CC2CCC(C1)N2CCC(CNS(=O)(=O)N1CCOCC1)c1ccccc1", "note": "(racemic)", "values": [
      {"measurement": "IC50", "setting": "[1]; [8]", "value": 13, "unit": "nM"}
    ]},
    {"smiles": "Cc1nnc(C(C)C)n1[C@H]1C[C@H]2CC[C@@H](C1)N2CCC(CNC(=O)C1CCC(F)(F)CC1)c1ccccc1", "note": "(mixture of isomers) [listing 2 of 2 here]", "values": [
      {"measurement": "IC50", "setting": "[1]; hos", "value": 9740, "unit": "nM"}
    ]},
    {"smiles": "Cc1cc(OS(=O)(=O)c2ccccc2)cc(C)c1C(=O)N1C[C@H]2CN(CCC(CNS(=O)(=O)c3ccccc3)c3ccccc3)C[C@H]2C1", "note": "(mixture of isomers)", "values": [
      {"measurement": "IC50", "setting": "[1]; [8]", "value": 8, "unit": "nM"},
      {"measurement": "bioavailability", "setting": "[4]", "value": 2, "unit": "%"},
      {"measurement": "half-life", "setting": "[5]", "value": "≤ 20", "unit": "min"},
      {"measurement": "half-life", "setting": "[6]", "value": "≤ 20", "unit": "min"},
      {"measurement": "AUC", "setting": "Rattus norvegicus", "value": 10},
      {"measurement": "IC50", "setting": "[3]", "value": 1, "unit": "nM"}
    ]},
    {"smiles": "Cc1nnc(C(C)C)n1[C@H]1C[C@H]2CC[C@@H](C1)N2CCC(CNS(=O)(=O)c1ccccc1)c1ccccc1", "note": "(racemic; 14b)", "values": [
      {"measurement": "IC50", "setting": "[1]; hos", "value": 146, "unit": "nM"}
    ]}
  ]
}
